Data from patent US10350271B2, “Lipidated peptides for lowering blood glucose” (USTAV ORGANICKE CHEMIE A BIOCHEMIE AKADEMIE VED CR, V.V.I., priority 2014, dated 2019).
Where two headings read alike, the source gives them in different places. Marks after values point to notes of the source that are not given here. Numbered stars: 1 amine (or outer) side, 2 acyl side, 3 side chain; on linkers, the order of the positions; unused ones are H or OH. Side chains are listed from the residue outwards. Ends that are not written are not given here. Peptide text beside a SMILES is read from it. * marks the point of attachment. γGlu = O=C(O)[C@H](CCC(=O)[*:2])N[*:1]; Palmitoyl = CCCCCCCCCCCCCCCC(=O)*

How the values were obtained:
[1] = tested on: ZDF diabetic rats; assay: 21 days repeated administration in diabetic ZDF rats (food intake, OGTT, metabolic parameters); assay type: in vivo; settings: for Cumulative food intake Day 1 / Cumulative food intake Day 1-7 / Cumulative food intake Day 1-14 / Cumulative food intake Day 1-21 / Cholesterol / Insulin / Leptin: ZDF rats
Description: (§1) Rats were subjected to a 21-day food intake experiment. ZDF rats were IP injected with either phosphate-buffered saline pH6 (control) or compound 43 or 52 at a dose of 1 and 5 mg/kg (n=8), twice a day for 21 days. After 21 days of treatment, rats were fasted overnight and OGTT was performed. After initial blood glucose measurement, 2 g/kg glucose solution was administered by oral gavage. Blood glucose was then measured at 15, 30, 60, 90, 120 and 180 min.
(§2) NMRI mice, C57BL/6 mice, and Wistar rats (AnLab, Prague, Czech Republic) were housed in a temperature of 23° C. and a daily cycle of 12 h light and dark (light from 6:00). They were given ad libitum water and a standard chow diet that contained 25, 9 and 66% of calories of protein, fat and carbohydrate respectively. Energy content of the feed was 3.4 kcal/g (St-1, Mlýn Kocanda, Czech Republic). Db/db mice and their controls (C57BL/6 background) were obtained from Taconic (Denmark), housed under the same conditions as described above, and fed by Altromin (Taconic, Denmark). ZDF-Lepr^fa/Crl, diabetic fa/fa male rats were obtained from Charles River (France), housed under same conditions as described above, and fed with a Purina 5008 diet (IPS Product Supplies Limited, UK). All experiments followed the ethical guidelines for animal experiments and the law of the Czech Republic Nr. 246/1992.
The ZDF rats were treated with vehicle or analogs 43 and 52 (1 and 5 mg/kg IP) dissolved in phosphate buffered saline, pH 6, twice daily for 21 days and sacrificed on day 22. Food intake was measured daily up to day 22. Leptin, insulin, cholesterol and HbA1c levels were measured on day 21. Glucose tolerance test (OGTT) was also performed on day 21.
as §1, with “min. […] The statistical significance, denoted by the asterisk (*), was *P<0.05.” for “min.”

[2] = molecular target: T1, rat PrRP receptor (Rattus norvegicus, UniProt Q64121); assay: Competitive binding in RC-4B/C rat pituitary cells (125I-rat PrRP31); settings: for % of PrRP31, RC-4B/C rat pituitary cells: affinity relative to PrRP31
T1 construct: host or cells: RC-4B/C rat pituitary cell line
T1 sequence (Q64121 1-370): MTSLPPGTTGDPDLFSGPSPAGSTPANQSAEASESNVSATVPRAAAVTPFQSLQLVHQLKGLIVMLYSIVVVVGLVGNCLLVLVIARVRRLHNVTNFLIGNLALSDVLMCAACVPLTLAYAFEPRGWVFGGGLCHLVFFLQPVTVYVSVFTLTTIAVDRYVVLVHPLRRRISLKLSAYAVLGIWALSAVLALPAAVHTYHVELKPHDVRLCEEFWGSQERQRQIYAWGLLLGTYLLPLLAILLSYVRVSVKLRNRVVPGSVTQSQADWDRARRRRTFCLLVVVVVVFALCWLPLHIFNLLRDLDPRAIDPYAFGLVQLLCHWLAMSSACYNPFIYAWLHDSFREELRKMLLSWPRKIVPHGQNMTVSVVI
Summary of the method: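 Displacement of rat 125I-PrRP31 ([…]) by test analogs, 10^−11–10^−4 mol·l^−1, on whole RC-4B/C cells, 60 min RT. Bound counts measured by γ-counter in duplicate, ≥3 repeats, analyzed by nonlinear one-site binding regression.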

[3] = tested on: Wistar rats; assay: Food intake in fasted rats after SC injection; assay type: in vivo; settings: overnight fasted rats, compared to controls given vehicle
Description: as §2
In experiments with C57BL/6 mice or Wistar rats, food intake was measured with overnight fasted animals in individual cages. Food was withdrawn 17 hours prior to injection of lipidated analog of prolactin releasing peptide (PrRP); free access to water was maintained. The administration of either saline, PrRP, or lipidated analogs was performed by SC injection at doses of 1-10 mg/kg (which corresponded to a volume of 0.2 ml/mouse and 0.1 ml/100 g weight of rat). Fifteen minutes after the lipidated analog of prolactin releasing peptide (PrRP) administration, the mice were given pre-weighed food. The food was then weighed every 30 minutes for 5-10 hours. The administration of each dose was performed at least twice, and each group of mice consisted of at least 6 mice.

[4] = molecular target: T2, human PrRP receptor GPR10 (Homo sapiens, UniProt P49683); assay: Competitive binding in CHO cells transfected with human GPR10 (human 125I-PrRP31); settings: for % of PrRP31, GPR10 human receptor transfected in CHO cells: affinity relative to PrRP31
T2 construct: host or cells: CHO cells
T2 sequence (P49683 1-370): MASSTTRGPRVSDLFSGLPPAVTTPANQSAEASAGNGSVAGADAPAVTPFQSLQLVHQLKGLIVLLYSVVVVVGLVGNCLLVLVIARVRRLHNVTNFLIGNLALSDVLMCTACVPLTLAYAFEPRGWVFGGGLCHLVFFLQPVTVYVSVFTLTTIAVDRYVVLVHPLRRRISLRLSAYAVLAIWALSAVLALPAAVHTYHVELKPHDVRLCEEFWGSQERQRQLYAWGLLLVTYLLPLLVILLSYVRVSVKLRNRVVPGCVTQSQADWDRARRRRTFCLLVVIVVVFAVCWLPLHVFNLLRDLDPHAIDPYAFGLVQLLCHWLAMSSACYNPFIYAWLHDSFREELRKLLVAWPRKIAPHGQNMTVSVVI
Summary of the method: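 Values from one-site nonlinear regression of displacement curves: analogs (final 10^-11 to 10^-4 mol·l^-1) competed with 125I-PrRP31 (final 5×10^-11 mol·l^-1) on adherent human GPR10 CHO cells. Binding ran 1 h at room temperature, pH 7.4 buffer with NaCl, MgCl2, CaCl2, glucose, BSA; cell-bound radioactivity counted after NaOH lysis.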

[5] = tested on: C57BL/6 mice; assay: Food intake in fasted mice after SC injection; assay type: in vivo; settings: 5 mg/kg SC, 45 min after injection
Summary of the method: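 Saline, PrRP or a lipidated analog was injected SC (1-10 mg/kg) after a 17 h fast with free water, animals housed singly.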

[6] = tested on: MAPK/ERK1/2 signaling pathway; settings: positive control; cited from earlier work

## CCCCCCCCCCCCCCCC(=O)N[C@@H](CCC(=O)NCCCC[C@H](NC(=O)[C@@H](NC(=O)[C@H](CCC(=O)O)NC(=O)[C@H](CCSC)NC(=O)[C@H](CO)NC(=O)[C@H](Cc1c[nH]cn1)NC(=O)[C@H](CCCNC(=N)N)NC(=O)[C@H](Cc1c[nH]cn1)NC(=O)[C@@H](NC(=O)[C@H](CCCNC(=N)N)NC(=O)[C@@H](N)CO)[C@@H](C)O)[C@@H](C)CC)C(=O)N[C@H](C(=O)N1CCC[C@H]1C(=O)N[C@@H](CC(=O)O)C(=O)N[C@H](C(=O)N[C@@H](CC(N)=O)C(=O)N1CCC[C@H]1C(=O)N[C@@H](C)C(=O)N[C@@H](Cc1c[nH]c2ccccc12)C(=O)N[C@@H](Cc1ccc(O)cc1)C(=O)N[C@@H](C)C(=O)N[C@@H](CO)C(=O)N[C@@H](CCCNC(=N)N)C(=O)NCC(=O)N[C@H](C(=O)N[C@@H](CCCNC(=N)N)C(=O)N1CCC[C@H]1C(=O)N[C@H](C(=O)NCC(=O)N[C@@H](CCCNC(=N)N)C(=O)N[C@@H](Cc1ccccc1)C(N)=O)C(C)C)[C@@H](C)CC)[C@@H](C)CC)[C@@H](C)O)C(=O)O [Analog 52] (H-SRTHRHSMEIK([γGlu-Palmitoyl])TPDINPAWYASRGIRPVGRF-NH2)
[1]; 5 mg/kg IP twice daily, vs vehicle
  Food intake in free fed ZDF diabetic rats: significantly lowered
[1]; 1 mg/kg IP twice daily
  Cumulative food intake Day 1: 43.0 ± 2.2 g
  Cumulative food intake Day 1-7: 306.9 ± 11.8 g
  Cumulative food intake Day 1-14: 570.9 ± 17.1 g
  Cumulative food intake Day 1-21: 811.5 ± 23.6 g
[1]; 5 mg/kg IP twice daily
  Cumulative food intake Day 1: 42.4 ± 2.1 g
  Cumulative food intake Day 1-7: 287.8 ± 12.5* g
  Cumulative food intake Day 1-14: 559.0 ± 21.0* g
  Cumulative food intake Day 1-21: 814.8 ± 26.1 g
[1]; day 21, 1 mg/kg IP twice daily
  Cholesterol: 3.71 ± 0.16 mmol/L
  Insulin: 268.94 ± 43.40 pmol/L
  Leptin: 16336 ± 1466 pg/mL
[1]; day 21, 5 mg/kg IP twice daily
  Cholesterol: 3.19 ± 0.16 mmol/L
  Insulin: 183.35 ± 37.49 pmol/L
  Leptin: 11372 ± 427 pg/mL
[2]
  Ki: 4.23 ± 2.11 nM
  % of PrRP31, RC-4B/C rat pituitary cells: 57%
[3]
  Food intake in rats: significantly reduced
[4]
  Ki: 5.95 ± 0.72 nM
  % of PrRP31, GPR10 human receptor transfected in CHO cells: 65%
[5]
  Food intake in mice % of saline-treated group: 10%

## CCCCCCCCCCCCCCCC(=O)N[C@@H](CCC(=O)NCCCC[C@H](NC(=O)[C@@H](NC(=O)[C@H](CCC(=O)O)NC(=O)[C@H](CCSC)NC(=O)[C@H](CO)NC(=O)[C@H](Cc1c[nH]cn1)NC(=O)[C@H](CCCNC(=N)N)NC(=O)[C@H](Cc1c[nH]cn1)NC(=O)[C@@H](NC(=O)[C@H](CCC(=O)O)NC(=O)[C@@H](N)CO)[C@@H](C)O)[C@@H](C)CC)C(=O)N[C@H](C(=O)N1CCC[C@H]1C(=O)N[C@@H](CC(=O)O)C(=O)N[C@H](C(=O)N[C@@H](CC(N)=O)C(=O)N1CCC[C@H]1C(=O)N[C@@H](C)C(=O)N[C@@H](Cc1c[nH]c2ccccc12)C(=O)N[C@@H](Cc1ccc(O)cc1)C(=O)N[C@@H](C)C(=O)N[C@@H](CO)C(=O)N[C@@H](CCCNC(=N)N)C(=O)NCC(=O)N[C@H](C(=O)N[C@@H](CCCNC(=N)N)C(=O)N1CCC[C@H]1C(=O)N[C@H](C(=O)NCC(=O)N[C@@H](CCCNC(=N)N)C(=O)N[C@@H](Cc1ccccc1)C(N)=O)C(C)C)[C@@H](C)CC)[C@@H](C)CC)[C@@H](C)O)C(=O)O [Analog 55] (H-SETHRHSMEIK([γGlu-Palmitoyl])TPDINPAWYASRGIRPVGRF-NH2)
[2]
  % of PrRP31, RC-4B/C rat pituitary cells: 236%
[3]
  Food intake in rats: significantly reduced
[4]; CHO cells, human 125I-PrRP31, read-out: Ki, GPR10 human receptor transfected in CHO cells
  Ki: 4.72 ± 0.35 nM
[4]
  % of PrRP31, GPR10 human receptor transfected in CHO cells: 83%
[5]
  Food intake in mice % of saline-treated group: 12%

## PrRP31: prolactin-releasing peptide composed of 31 amino acids, positive control; rat or human form not stated (SRAHQHSMETRTPDINPAWYTGRGIRPVGRF-NH2; ends and bridges not checked)
[6]
  Initiation of MAPK/ERK1/2 signaling: shown to initiate MAPK/ERK1/2 signaling
